Assay results as given in ChEMBL document CHEMBL1201862, “PubChem BioAssay data set” (2004).
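Five concentrations, 48 hours, 96-well plates. GI50 marks 50% less growth.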 Active and inactive are the calls of the source. No stated cut-off is given here; in the data, active = GI50 up to about 1.1 µM and inactive = higher.

Key:
Assay in all cases: growth of human tumour cells (NCI), 48 h
OVCAR-3 = system: OVCAR-3
786-0 = system: 786-0
IGROV-1 = system: IGROV-1
A549 = system: A549
ACHN = system: ACHN
HL-60 = system: HL-60
EKVX = system: EKVX
M14 = system: M14
HCT-15 = system: HCT-15
U-251 = system: U-251
SK-MEL-28 = system: SK-MEL-28
BT-549 = system: BT-549
SK-MEL-5 = system: SK-MEL-5
SK-OV-3 = system: SK-OV-3
SR = system: SR
SF-539 = system: SF-539

SMILES | GI50 (OVCAR-3) | GI50 (786-0) | GI50 (IGROV-1) | GI50 (A549) | GI50 (ACHN) | GI50 (HL-60) | GI50 (EKVX) | GI50 (M14) | GI50 (HCT-15) [µM] | GI50 (U-251) | GI50 (SK-MEL-28) | GI50 (BT-549) | GI50 (SK-MEL-5) | GI50 (SK-OV-3) | GI50 (SR) | GI50 (SF-539)
CC1CCC(O)(C(C)(C(=O)O)c2ccccc2)CC1 (configuration not stated) | > 100 µM (inactive) | > 100 µM (inactive) | > 100 µM (inactive) | 42.2 µM (inactive) | > 100 µM (inactive) | > 100 µM (inactive) | > 100 µM (inactive) | 49 µM (inactive) | > 100 | 64 µM (inactive) | > 100 µM (inactive) | > 100 µM (inactive) | > 100 µM (inactive) |  |  | 
C[C@H]1[C@H](C)N(Cc2ccccc2)P(=O)(C(O)/C=C/c2ccccc2)N1Cc1ccccc1 (some centres not stated) |  | 5.32 µM (inactive) | 8.32 µM (inactive) | 8.07 µM (inactive) | 8.47 µM (inactive) |  | 7.67 µM (inactive) | 4.62 µM (inactive) | 9.29 | 5.11 µM (inactive) | 8.51 µM (inactive) | 12 µM (inactive) | 4.55 µM (inactive) | 9.68 µM (inactive) | 6.55 µM (inactive) | 5.07 µM (inactive)
O=[N+]([O-])c1ccc2[nH]c(-c3ccc(Cl)cc3)nc2c1 | 30.8 µM (inactive) | 33 µM (inactive) | 31 µM (inactive) | 20.8 µM (inactive) | 26.8 µM (inactive) |  | 14.4 µM (inactive) | 19.1 µM (inactive) | 14.9 |  | 39 µM (inactive) | 29.7 µM (inactive) | 16.1 µM (inactive) | 24 µM (inactive) | 26.3 µM (inactive) | 21.1 µM (inactive)
Cn1c(SCc2ccc(F)cc2)nnc1C12CC3CC(CC(C3)C1)C2 | 29.4 µM (inactive) | 35.8 µM (inactive) | 12.7 µM (inactive) | 36.6 µM (inactive) | 33.5 µM (inactive) | 11.1 µM (inactive) | 37.1 µM (inactive) | 24.2 µM (inactive) | 26.4 | 35.2 µM (inactive) | 24.3 µM (inactive) |  | 11.9 µM (inactive) | 52.1 µM (inactive) | 24.2 µM (inactive) | 24.5 µM (inactive)
CC(=O)/C(=C/NC(=S)Nc1ccccc1)C(=O)Nc1ccccc1C | 61.1 µM (inactive) | > 100 µM (inactive) | > 100 µM (inactive) | > 100 µM (inactive) | > 100 µM (inactive) | 84.9 µM (inactive) | > 100 µM (inactive) | > 100 µM (inactive) | > 100 | > 100 µM (inactive) | > 100 µM (inactive) |  | 61.2 µM (inactive) | > 100 µM (inactive) | > 100 µM (inactive) | > 100 µM (inactive)
CCOC(=O)c1c(N2CCCC2)[nH]c(=O)c(C(c2ccc(N(C)C)cc2)c2c(O)c(C(=O)OCC)c(N3CCCC3)[nH]c2=O)c1O | > 100 µM (inactive) | > 100 µM (inactive) |  | > 100 µM (inactive) | > 100 µM (inactive) |  | > 100 µM (inactive) | > 100 µM (inactive) | > 100 | > 100 µM (inactive) | > 100 µM (inactive) | 30.4 µM (inactive) | > 100 µM (inactive) | > 100 µM (inactive) | > 100 µM (inactive) | > 100 µM (inactive)
CC1CCCN(CC(O)CN2CCCc3ccccc32)C1 (configuration not stated) | > 100 µM (inactive) | > 100 µM (inactive) | > 100 µM (inactive) | > 100 µM (inactive) | > 100 µM (inactive) | 8.02 µM (inactive) | > 100 µM (inactive) | > 100 µM (inactive) | > 100 | > 100 µM (inactive) | > 100 µM (inactive) | > 100 µM (inactive) | > 100 µM (inactive) | > 100 µM (inactive) | > 100 µM (inactive) | 
OCC1C(OCc2ccccc2)C(OCc2ccccc2)C(OCc2ccccc2)CN1Cc1ccccc1 (configuration not stated) | 47.5 µM (inactive) | 26.3 µM (inactive) | 35.5 µM (inactive) | 18.7 µM (inactive) | 3.38 µM (inactive) |  | 84.9 µM (inactive) | 37.2 µM (inactive) | 30.5 | 27.3 µM (inactive) | 88.9 µM (inactive) |  |  | > 100 µM (inactive) | 8.83 µM (inactive) | 73.5 µM (inactive)
CN(C)CCCNc1ncnc2[nH]cnc12 | > 100 µM (inactive) | > 100 µM (inactive) | > 100 µM (inactive) | > 100 µM (inactive) | > 100 µM (inactive) |  | > 100 µM (inactive) | > 100 µM (inactive) | > 100 | > 100 µM (inactive) | > 100 µM (inactive) | > 100 µM (inactive) | > 100 µM (inactive) | > 100 µM (inactive) |  | 
O=C(Nc1sccc1S(=O)(=O)c1ccc(Cl)cc1)C(F)(F)F | 31 µM (inactive) | 17 µM (inactive) | 32.1 µM (inactive) | 29.2 µM (inactive) | 43 µM (inactive) |  | 40.7 µM (inactive) | 38.3 µM (inactive) | 29.5 | 34.6 µM (inactive) | 74.3 µM (inactive) | 58.5 µM (inactive) | 16 µM (inactive) | 30.3 µM (inactive) | 22.8 µM (inactive) | 26.1 µM (inactive)
Cn1c(=O)n2n(c1=O)C([S+]([O-])c1ccccc1)C2 (configuration not stated) | > 100 µM (inactive) | > 100 µM (inactive) | 32.1 µM (inactive) | 65.2 µM (inactive) | > 100 µM (inactive) |  | > 100 µM (inactive) | > 100 µM (inactive) | > 100 | > 100 µM (inactive) | > 100 µM (inactive) | > 100 µM (inactive) | > 100 µM (inactive) | > 100 µM (inactive) | 38.3 µM (inactive) | > 100 µM (inactive)
CC(=O)OCC1OC(n2ncc(=O)[nH]c2=O)C(OC(C)=O)C1OC(C)=O (configuration not stated) | 65.9 µM (inactive) | 4.04 µM (inactive) | 17.8 µM (inactive) | 8.97 µM (inactive) | 4.9 µM (inactive) |  |  | 73.5 µM (inactive) | 3.41 | 1.09 µM (active) | > 100 µM (inactive) |  | 19.3 µM (inactive) | 61.2 µM (inactive) | 5.36 µM (inactive) | 30.3 µM (inactive)
Cn1c(=O)c2c(nc(NCCCCl)n2CC(=O)NCCCCl)n(C)c1=O | > 100 µM (inactive) | > 100 µM (inactive) | > 100 µM (inactive) | > 100 µM (inactive) | > 100 µM (inactive) | > 100 µM (inactive) | > 100 µM (inactive) | > 100 µM (inactive) | > 100 | > 100 µM (inactive) | > 100 µM (inactive) | > 100 µM (inactive) | > 100 µM (inactive) | > 100 µM (inactive) |  | 
CCOP(=O)(OCC)/C(C#N)=C/c1coc2cc(C)cc(C)c2c1=O | > 100 µM (inactive) | > 100 µM (inactive) | > 100 µM (inactive) | > 100 µM (inactive) | > 100 µM (inactive) | > 100 µM (inactive) | > 100 µM (inactive) | > 100 µM (inactive) |  | > 100 µM (inactive) | > 100 µM (inactive) | > 100 µM (inactive) | > 100 µM (inactive) | > 100 µM (inactive) | > 100 µM (inactive) | 
O=C(Nc1nccs1)NS(=O)(=O)n1cnc2ccccc21 | > 100 µM (inactive) | > 100 µM (inactive) | > 100 µM (inactive) | > 100 µM (inactive) | > 100 µM (inactive) | > 100 µM (inactive) | > 100 µM (inactive) | > 100 µM (inactive) | > 100 | > 100 µM (inactive) | > 100 µM (inactive) | > 100 µM (inactive) | > 100 µM (inactive) | > 100 µM (inactive) |  | > 100 µM (inactive)
O=C(O)CC1NC(/C(=C/c2ccccc2)NC(=O)c2ccccc2)OC1=O (configuration not stated) | 20.6 µM (inactive) | 29.4 µM (inactive) | 25.1 µM (inactive) | 84.5 µM (inactive) | > 100 µM (inactive) | 11.6 µM (inactive) | 39.6 µM (inactive) | 17.1 µM (inactive) | 31 | 18.4 µM (inactive) | 24.3 µM (inactive) | 19.9 µM (inactive) | 16.4 µM (inactive) | 55.3 µM (inactive) |  | 21 µM (inactive)
O/N=C(\CC(O)(C(F)(F)F)C(F)(F)F)c1cccs1 | > 10 µM (inactive) | > 10 µM (inactive) | > 10 µM (inactive) | > 10 µM (inactive) | > 10 µM (inactive) | > 10 µM (inactive) | > 10 µM (inactive) | > 10 µM (inactive) | > 10 | > 10 µM (inactive) | > 10 µM (inactive) | > 10 µM (inactive) | > 10 µM (inactive) | > 10 µM (inactive) |  | > 10 µM (inactive)
O=C(O)c1ccccc1C1c2ccccc2Oc2ccccc21 | 27.9 µM (inactive) | 49.5 µM (inactive) | 76 µM (inactive) | 48.6 µM (inactive) | 34.6 µM (inactive) | 39 µM (inactive) | 49.2 µM (inactive) | > 100 µM (inactive) | 36.9 | 35.2 µM (inactive) | > 100 µM (inactive) | 72.3 µM (inactive) | 41.4 µM (inactive) |  | 41.9 µM (inactive) | 
CCc1cccc2c3c([nH]c12)-c1ccccc1NC(=O)C3 | > 100 µM (inactive) | > 100 µM (inactive) | > 100 µM (inactive) | > 100 µM (inactive) |  | 92.3 µM (inactive) | > 100 µM (inactive) | > 100 µM (inactive) | 84.1 | > 100 µM (inactive) | > 100 µM (inactive) | > 100 µM (inactive) | > 100 µM (inactive) | > 100 µM (inactive) |  | 
COc1ccc(C2(O)C(S(=O)(=O)c3ccc(C)cc3)=Cc3ccc(OC)cc32)cc1 (configuration not stated) |  | 41 µM (inactive) | > 100 µM (inactive) | > 100 µM (inactive) | 37.4 µM (inactive) | 22 µM (inactive) | 78.2 µM (inactive) |  | > 100 | 41.2 µM (inactive) | 32.7 µM (inactive) |  | > 100 µM (inactive) | 35.6 µM (inactive) | > 100 µM (inactive) | 43.5 µM (inactive)
